# In patent US20240376073A1 (Hoffmann-La Roche Inc., priority 2021, published 2024):
# Counter-ions that a name gives are not always drawn. Like-named read-outs stand apart in the source and are kept apart here.
# Test system: Acinetobacter baumannii ATCC17961
# Assay: Antimicrobial susceptibility testing: 90% growth inhibitory concentration (IC90) determination
# Type: cell-based
# Details: Iso-Sensitest broth, growth by OD 600 nm over 16 h, 35±2° C.
# How it was run: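 Twofold serial dilutions (e.g. 50 to 0.097 μM final) in Iso-Sensitest broth, inoculated at ~5×10^(5) CFU/ml, incubated at 35±2° C. OD600 read every 20 min over 16 h; IC90 derived from growth inhibition during logarithmic growth.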
# [1] = Acinetobacter baumannii ATCC17961, read-out: ATCC 17961 IC90
# [2] = Acinetobacter baumannii, ATCC17961, 16 h, read-out: ATCC 17961 IC90, Acinetobacter baumannii ATCC17961
Compound,IC90 [1] [nM],IC90 [2] [nM]
"COc1ccc(-c2cnc(C(=O)Nc3ccc(C(=O)N4CCN(C(=O)C5CCN(C(=O)C[N+](C)(C)C)CC5)CC4)c(Cl)c3)n2C)c(F)c1F [Example C6, [2-[4-[4-[2-chloro-4-[5-(2,3-difluoro-4-methoxy-phen-yl)-1-methyl-imidazole-2-carbonyl]amino]-benzoyl]piper-azine-1-carbon-yl]-1-piperidyl]-2-oxo-ethyl]-trimethyl-ammonium; formate]",160,–
"COc1ccc(-c2cnc(C(=O)Nc3ccc(C(=O)N4CCN(C(=O)C5CCN(C(=O)C[N+](C)(C)CC(N)=O)CC5)CC4)c(Cl)c3)n2C)c(F)c1F [Example C7, (2-amino-2-oxo-ethyl)-[2-[4-[4-[2-chloro-4-[[5-(2,3-difluoro-4-methoxy-phenyl)-1-meth-yl-imidazole-2-carbonyl]amino]-benzoyl]piper-azine-1-carbon-yl]-1-piperidyl]-2-oxo-ethyl]-dimethyl-ammo-nium; formate]",250,–
"Cn1c(-c2ccc(OC(F)F)c(F)c2Cl)cnc1C(=O)Nc1ccc(C(=O)N2CCN(C(=O)C3CC[N+](CC(N)=O)(CC(N)=O)CC3)CC2)c(Cl)c1 [Example C9, N-[4-[4-[1,1-bis(2-amino-2-oxo-ethyl)piper-idin-1-ium-4-carbonyl]piper-azine-1-carbon-yl]-3-chloro-phenyl]-5-[2-chloro-4-(difluorometh-oxy)-3-fluoro-phenyl]-1-methyl-imid-azole-2-carbox-amide; formate]",–,120
Cn1c(-c2ccc(OC(F)F)c(F)c2Cl)cnc1C(=O)Nc1ccc(C(=O)N2CCN(C(=O)C3CC[N+](CC(N)=O)(CC4CNC4)CC3)CC2)c(Cl)c1 (stereo not drawn) [Example C10],–,100
"CCc1cc(NC(=O)c2ncc(-c3ccc(OC(F)F)c(F)c3F)n2C)ccc1C(=O)N1CCN(C(=O)C2CC[N+](C)(CC3CCNC3)CC2)CC1 (stereo not drawn) [Example C17, 5-[4-(difluoro-methoxy)-2,3-difluoro-phenyl]-N-[3-ethyl-4-[4-[1-methyl-1-(pyr-rolidin-3-ylmeth-yl)piperidin-1-ium-4-carbonyl]-piperazine-1-carbonyl]phenyl]-1-methyl-imid-azole-2-carbox-amide; 2,2,2-trifluoroacetate; 2,2,2-trifluoro-acetic acid]",220,–
"CCc1cc(NC(=O)c2ncc(-c3ccc(OC(F)F)c(F)c3F)n2C)ccc1C(=O)N1CCN(C(=O)C2CC[N+](C)(CC3CCNCC3)CC2)CC1 (stereo not drawn) [Example C20, 5-[4-(difluoro-methoxy)-2,3-difluoro-phenyl]-N-[3-ethyl-4-[4-[1-methyl-1-(4-piperidylmethyl)-piperidin-1-ium-4-carbonyl]-piperazine-1-carbonyl]phenyl]-1-methyl-imid-azole-2-carbox-amide; 2,2,2-trifluoroacetate; 2,2,2-trifluoro-acetic acid]",80,–
CCc1cc(NC(=O)c2ncc(-c3ccc(OC(F)F)c(F)c3F)n2C)ccc1C(=O)N1CCN(C(=O)C2CC[N+](CC(N)=O)(CC3CNC3)CC2)CC1 (stereo not drawn) [Example C21],220,–
"COc1ccc(-c2cnc(C(=O)Nc3ccc(C(=O)NCc4cnn(CC5C[N+](C)(C)C5)c4)c(Cl)c3)n2C)c(F)c1F [Example C22, N-[3-chloro-4-[[1-[(1,1-dimethylazetidin-1-ium-3-yl)methyl]pyrazol-4-yl]methylcarbamoyl]phenyl]-5-(2,3-difluoro-4-methoxy-phenyl)-1-methyl-imidazole-2-carboxamide;formate]",230,–
"COc1ccc(-c2cnc(C(=O)Nc3ccc(C(=O)NCc4c[n+](C)c(NC(=O)C[N+](C)(C)C)s4)c(Cl)c3)n2C)c(F)c1F [Example C23, [2-[[5-[[[2-chloro-4-[[5-(2,3-difluoro-4-methoxy-phenyl)-1-methyl-imidazole-2-carbonyl]amino]benzoyl]amino]methyl]-3-methyl-thiazol-3-ium-2-yl]amino]-2-oxo-ethyl]-trimethyl-ammonium;formate]",76,–
"Cn1c(-c2ccc(OC(F)F)c(F)c2F)cnc1C(=O)Nc1ccc(C(=O)N2CCN(C(=O)C[N+]3(C)CCNCC3)CC2)c(Cl)c1 [Example C24, N-[3-chloro-4-[4-[2-(1-methylpiperazin-1-ium-1-yl)acetyl]piperazine-1-carbonyl]phenyl]-5-[4-(difluoromethoxy)-2,3-difluoro-phenyl]-1-methyl-imidazole-2-carboxamide;2,2,2-trifluoroacetate;2,2,2-trifluoroacetic acid]",–,63

# Further lines, with some results ahead:
IC90 [1] [nM],Compound,IC90 [2] [nM]
73,"COc1ccc(-c2cnc(C(=O)Nc3ccc(C(=O)N4CCN(C(=O)C5CC[N+](C)(CC(N)=O)CC5)CC4)c(Cl)c3)n2C)c(F)c1F (stereo not drawn) [Example C5, N-[4-[4-[1-(2-amino-2-oxo-ethyl)-1-methyl-piperidin-1-ium-4-carbonyl]-piperazine-1-carbonyl]-3-chloro-phenyl]-5-(2,3-difluoro-4-methoxy-phenyl)-1-meth-yl-imidazole-2-carboxamide; formate]",–
640,"COc1ccc(-c2cnc(C(=O)Nc3ccc(C(=O)N4CCN(C(=O)C5CC[N+](C)(CC(=O)O)CC5)CC4)c(Cl)c3)n2C)c(F)c1F (stereo not drawn) [Example C8, 2-[4-[4-[2-chloro-4-[[5-(2,3-difluoro-4-methoxy-phen-yl)-1-methyl-imidazole-2-carbonyl]amino]-benzoyl]piper-azine-1-carbon-yl]-1-methyl-piperidin-1-ium-1-yl]acetic acid; formate]",–
43,"Cn1c(-c2ccc(OC(F)F)c(F)c2Cl)cnc1C(=O)Nc1ccc(C(=O)N2CCN(C(=O)C3CC[N+](C)(CCN)CC3)CC2)c(Cl)c1 (stereo not drawn) [Example C12, N-[4-[4-[1-(2-aminoethyl)-1-methyl-piperidin-1-ium-4-carbon-yl]piperazine-1-carbonyl]-3-chloro-phenyl]-5-[2-chloro-4-(difluorometh-oxy)-3-fluoro-phenyl]-1-methyl-imidazole-2-carboxamide; formic acid; formate]",–
73,"Cn1c(-c2ccc(OC(F)F)c(F)c2F)cnc1C(=O)Nc1ccc(C(=O)N2CCN(C(=O)C3CC[N+](C)(CC4CNC4)CC3)CC2)c(Cl)c1 (stereo not drawn) [Example C13, N-[4-[4-[1-(azet-idin-3-ylmeth-yl)-1-methyl-piper-idin-1-ium-4-carbonyl]piper-azine-1-carbon-yl]-3-chloro-phen-yl]-5-[4-(difluoro-methoxy)-2,3-difluoro-phenyl]-1-methyl-imid-azole-2-carbox-amide; 2,2,2-trifluoroacetate; 2,2,2-trifluoro-acetic acid]",–
49,"Cn1c(-c2ccc(OC(F)F)c(F)c2F)cnc1C(=O)Nc1ccc(C(=O)N2CCN(C(=O)C3CC[N+](C)(CC4CCNC4)CC3)CC2)c(Cl)c1 (stereo not drawn) [Example C14, N-[3-chloro-4-[4-[1-methyl-1-(pyrrolidin-3-yl-methyl)piperidin-1-ium-4-carbon-yl]piperazine-1-carbonyl]phenyl]-5-[4-(difluoro-methoxy)-2,3-difluoro-phenyl]-1-methyl-imid-azole-2-carbox-amide; formic acid; formate]",–
73,"Cn1c(-c2ccc(OC(F)F)c(F)c2Cl)cnc1C(=O)Nc1ccc(C(=O)N2CCN(C(=O)C3CC[N+](C)(CC4CNC4)CC3)CC2)c(Cl)c1 (stereo not drawn) [Example C15, N-[4-[4-[1-(azetidin-3-yl-methyl)-1-meth-yl-piperidin-1-ium-4-carbonyl]-piperazine-1-car-bonyl]-3-chloro-phenyl]-5-[2-chloro-4-(difluoro-methoxy)-3-fluoro-phenyl]-1-methyl-imidazole-2-carboxamide; formic acid; formate]",–
100,"COc1ccc(-c2cnc(C(=O)Nc3ccc(C(=O)N4CCN(C(=O)C5CC[N+](C)(CC6CNC6)CC5)CC4)c(Cl)c3)n2C)c(F)c1F (stereo not drawn) [Example C16, N-[4-[4-[1-(azet-idin-3-ylmethyl)-1-methyl-piper-idin-1-ium-4-carbonyl]piper-azine-1-carbon-yl]-3-chloro-phenyl]-5-(2,3-difluoro-4-meth-oxy-phenyl)-1-methyl-imid-azole-2-carbox-amide; formic acid; formate]",–
220,"Cn1c(-c2ccc(OC(F)F)c(F)c2F)cnc1C(=O)Nc1ccc(C(=O)N2CCN(C(=O)CC3CC[N+](C)(CC4CCNC4)C3)CC2)c(Cl)c1 (stereo not drawn) [Example C18, N-[3-chloro-4-[4-[2-[1-methyl-1-(pyrrolidin-3-yl-methyl)pyrrol-idin-1-ium-3-yl]-acetyl]piperazine-1-carbonyl]phen-yl]-5-[4-(difluoro-methoxy)-2,3-difluoro-phenyl]-1-methyl-imid-azole-2-carbox-amide; 2,2,2-trifluoroacetate; 2,2,2-trifluoro-acetic acid]",–
270,CCc1cc(NC(=O)c2ncc(-c3ccc(OC(F)F)c(F)c3F)n2C)ccc1C(=O)N1CCN(C(=O)C2CC[N+](C)(CC3CNC3)CC2)CC1 (stereo not drawn) [Example C19],–
43,"Cn1c(-c2ccc(OC(F)F)c(F)c2F)cnc1C(=O)Nc1ccc(C(=O)N2CCN(C(=O)C[N+]3(C)CCCC3)CC2)c(Cl)c1 [Example C25, N-[3-chloro-4-[4-[2-(1-methyl-pyrrolidin-1-ium-1-yl)acetyl]piper-azine-1-carbonyl]-phenyl]-5-[4-(difluorometh-oxy)-2,3-difluoro-phenyl]-1-methyl-imidazole-2-carboxamide; formate]",–
69,"Cn1c(-c2ccc(OC(F)F)c(F)c2F)cnc1C(=O)Nc1ccc(C(=O)N2CCN(C(=O)C[N+]3(C)CCC(C(N)=O)C3)CC2)c(Cl)c1 (stereo not drawn) [Example C26, N-[4-[4-[2-(3-carbamoyl-1-methyl-pyrrolidin-1-ium-1-yl)acet-yl]piperazine-1-carbonyl]-3-chloro-phenyl]-5-[4-(difluorometh-oxy)-2,3-difluoro-phenyl]-1-methyl-imidazole-2-carboxamide; formate]",–
